Assays:
[1] = tested on: SNU-16; assay: Cellular Proliferation Assay (Cell Counting Kit-8), SNU-16; format: cell-based; settings: Homo sapiens, SNU-16 cells, 72 hours
Protocol: (§1) Cellular Proliferation Assay
(§2) • KG-1 (ATCC Accession No. CCL-246), • SNU-16 (ATCC Accession No. CRL-5974), • RT-112 (ECACC Accession No. 85061106)
(§3) • FGFR related cancer cell proliferation is measured in 96-well plates using Cell Counting Kit-8 (Dojindo CK04-13). • Seed 30000 cells/well of KG1, 5000 cells/well of SNU16, and 1000 cells/well of RT112 in a volume of 100 μL/well in growth media. • After 24 hours, dilute the compound to 10, 3.3, 1.1, 0.37, 0.12, 0.04, 0.013, 0.004 μM, keeping the DMSO concentration at 5%. • Add 10 μL of 8-point compound series to the wells of culturing cells. • Incubate at 37° C. and 5% CO2 for 72 hours • Add 10 μL/well of CCkit8 and incubate at 37° C. and 5% CO2 for an hour • Detect the optical density of each well at 450 nm on Labsystems Multiskan K3.
(§4) • ODcompound well represents the optical density of cells treated with compound. • ODcell well represents the optical density of cells without compounds treatment. (only 0.5% DMSO) • ODcontrol well represents the optical density of culture media background
(§5) The concentration of compound providing 50% of proliferation inhibition was calculated using Excel Fit.

[2] = tested on: KG-1; assay: Cellular Proliferation Assay (Cell Counting Kit-8), KG-1; format: cell-based; settings: Homo sapiens, KG1 cells, 72 hours
Protocol: as §1, §2, §3, §4, §5

[3] = target: Recombinant human FGFR2 (Homo sapiens, UniProt P21802); assay: Transcreener Kinase Assay of FGFR2; format: biochemical; settings: read-out: FGFR2 (FP) IC50
Protocol: Transcreener Kinase Assay of FGFR2
• Compounds were solved in DMSO and were diluted with assay buffer to 5 folds of final concentration keeping the DMSO concentration at 5%. Further dilution are needed to make final concentrations are at 1, 0.33, 0.11, 0.037, 0.012, 0.004, 0.0014, 0.0005 μM; (the final concentration of DMSO is 1%). • Enzyme/Substrate stock Preparation: Recombinant human FGFR2 and Poly E4Y are both diluted in assay buffer. The final concentration is 0.3 ng/μL for FGFR2 and 62.5 ng/μL for Poly E4Y. The mixture is being kept in ice before use; • Prepare ATP Diluents, 10 mM ATP is diluted in assay buffer, the final concentration is 25 μM; • Prepare ADP Diluents: diluted ADP (500 μM) in assay buffer, the final concentration is 25 μM; • Prepare ATP standard curve stock as following:
• In a 96-well plate, Add 5 μL of compound or control. (positive control: 5 μL of 5% DMSO; negative control: 5 μL of 500 mM EDTA) into desired wells; • Add 10 μL of Enzyme/Substrate stock into each well; • Add 10 μL of ATP Diluents to initiate the enzyme reaction and votex the plate immediately on a plate shaker; • For the wells to make standard curve, add 5 μL of 5% DMSO, 10 μL of assay buffer and 10 μL of ATP standard curve stock. • Incubate the plate for 45 min at 28[…] on a plate shaker in a low speed.
• Detection Mix Preparation: The mixture is made by dilution with MilliQ water; as following: ADP Alexa633 tracer (1:100), ADP antibody (1:158), and stop & detect buffer (1:10); • Tracer Only control Preparation: The mixture is made by dilution with MilliQ water; as following: ADP Alexa633 tracer (1:100), and stop & detect buffer (1:10) • No Tracer control Preparation: stop & detect buffer is diluted with MilliQ water; by 10 fold. • Add 25 μL of detection mix, Tracer Only control and No Tracer control into corresponding wells, respectively; • Incubate at 28 °C for 1 h, on a plate shaker in a low speed; • Measure florescence polarization (FP) on TECAN F500. Excitation wavelength: 610 nm, Emission wavelength: 670 nm.
(§6) • [ADP] in Compound well represents the ADP concentration in compound well. • [ADP] in Positive control well represents the ADP concentration in 5% DMSO well • Conversion of mP value to ADP concentration is calculated based on the formula which determined by standard curve. And mP value is measured by following the instruction provided by BellBrook Labs. (www.bellbrooklabs.com). 6. IC50: calculated using XL-Fit 2.0 software.

[4] = target: FGFR3 kinase (Homo sapiens, UniProt P22607); assay: Z-Lyte Kinase Assay of FGFR3; format: biochemical
Protocol: Z-Lyte Kinase Assay of FGFR3
The final concentrations are 1, 0.33, 0.11, 0.037, 0.012, 0.004, 0.0014, 0.00046 μM, and the final concentration of DMSO is 2%. • 3) Kinase/Peptide Mixture (P/K solution): Prepare Kinase/Peptide Mixture by diluting the kinase to 0.7 μg/ml and the Z-LYTE™ Tyr 4 peptide to 4 μM in 1.33× Kinase Buffer. Mix gently by pipetting. • 4) Phospho-peptide Solution (PP solution): Add 0.4 μl of Z-LYTE™ Tyr 4 Phospho-peptide to 99.6 μl of 1.33× Kinase Buffer. • 5) ATP Solution: Prepare ATP Solution by diluting the 10 mM of ATP in 1.33× Kinase Buffer to 300 uM. • 6) Development Solution: Dilute Development Reagent B with Development Buffer as 1:128.
Shake the plate for 30 Sec and centrifuge (1500 rpm, 1 min) • Seal the plate to protect from the light and incubate the plate for 1 hour at RT (25-30[…]) • 2) Development reaction • Add 5 μl of the Development solution to all wells • Shake the plate for 30 Sec and centrifuge (1500 rpm, 1 min) • Seal the plate to protect from the light and incubate the plate for 1 hour at RT (25-30[…]) • 3) Stop and read • Add 5 μl of the Stop reagent to all wells • Shake the plate for 30 Sec and centrifuge (1500 rpm, 1 min) • Measure the value of Coumarin (Ex400 nm, Em445 nm) and fluorescein (Ex400 nm, Em520 nm), respectively.
Inhibition rate(IR)=1−%Photest Cpd/%PhoC2
• determined with add-in software for Microsoft Excel, XLfit™ (version 2.0) from ID Business Solutions (Guildford, UK)

[5] = target: Recombinant human FGFR1 (Homo sapiens, UniProt P11362); assay: Transcreener Kinase Assay of FGFR1; format: biochemical; settings: read-out: FGFR1 (FP) IC50
Protocol: Transcreener Kinase Assay of FGFR1
Prepare Solution • Compounds were solved in DMSO and were diluted with assay buffer to 5 folds of final concentration keeping the DMSO concentration at 5%. Further dilution are needed to make final concentrations are at 1, 0.33, 0.11, 0.037, 0.012, 0.004, 0.0014, 0.0005 μM; (the final concentration of DMSO is 1%). • Enzyme/Substrate stock Preparation: Recombinant human FGFR1 and Poly E4Y are both diluted in assay buffer.
Enzymatic Reaction • In a 96-well plate, Add 5 μL of compound or control. (positive control: 5 μL of 5% DMSO; negative control: 5 μL of 500 mM EDTA) into desired wells; • Add 10 μL of Enzyme/Substrate stock into each well; • Add 10 μL of ATP Diluents to initiate the enzyme reaction and votex the plate immediately on a plate shaker; • For the wells to make standard curve, add 5 μL of 5% DMSO, 10 μL of assay buffer and 10 μL of ATP standard curve stock. • Incubate the plate for 45 min at 28[…] on a plate shaker in a low speed.
Excitation wavelength: 610 nm, Emission wavelength: 670 nm.
as §6

Chain of Recombinant human FGFR1 (P11362 22-822): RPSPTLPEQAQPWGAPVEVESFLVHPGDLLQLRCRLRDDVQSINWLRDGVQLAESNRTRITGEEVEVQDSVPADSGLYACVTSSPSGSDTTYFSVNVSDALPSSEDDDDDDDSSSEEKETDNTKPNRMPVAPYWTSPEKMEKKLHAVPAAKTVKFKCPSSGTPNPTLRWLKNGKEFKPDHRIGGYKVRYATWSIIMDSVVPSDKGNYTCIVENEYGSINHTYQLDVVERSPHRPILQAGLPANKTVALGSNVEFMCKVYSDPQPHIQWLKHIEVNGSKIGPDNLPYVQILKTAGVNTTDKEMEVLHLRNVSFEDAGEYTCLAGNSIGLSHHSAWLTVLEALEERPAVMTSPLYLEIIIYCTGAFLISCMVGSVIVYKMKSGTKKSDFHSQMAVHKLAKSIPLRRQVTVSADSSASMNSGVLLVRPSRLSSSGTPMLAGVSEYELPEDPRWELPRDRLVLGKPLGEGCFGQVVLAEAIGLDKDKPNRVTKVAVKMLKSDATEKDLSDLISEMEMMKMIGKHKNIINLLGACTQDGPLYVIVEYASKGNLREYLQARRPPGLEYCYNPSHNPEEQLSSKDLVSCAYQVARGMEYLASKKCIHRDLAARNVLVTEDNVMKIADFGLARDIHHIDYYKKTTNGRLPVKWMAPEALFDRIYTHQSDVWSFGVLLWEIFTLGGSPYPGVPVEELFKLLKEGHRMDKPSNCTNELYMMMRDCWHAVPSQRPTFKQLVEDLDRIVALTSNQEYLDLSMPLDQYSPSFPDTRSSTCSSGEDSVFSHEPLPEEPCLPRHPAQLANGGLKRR
Chain of FGFR3 kinase (P22607 23-806): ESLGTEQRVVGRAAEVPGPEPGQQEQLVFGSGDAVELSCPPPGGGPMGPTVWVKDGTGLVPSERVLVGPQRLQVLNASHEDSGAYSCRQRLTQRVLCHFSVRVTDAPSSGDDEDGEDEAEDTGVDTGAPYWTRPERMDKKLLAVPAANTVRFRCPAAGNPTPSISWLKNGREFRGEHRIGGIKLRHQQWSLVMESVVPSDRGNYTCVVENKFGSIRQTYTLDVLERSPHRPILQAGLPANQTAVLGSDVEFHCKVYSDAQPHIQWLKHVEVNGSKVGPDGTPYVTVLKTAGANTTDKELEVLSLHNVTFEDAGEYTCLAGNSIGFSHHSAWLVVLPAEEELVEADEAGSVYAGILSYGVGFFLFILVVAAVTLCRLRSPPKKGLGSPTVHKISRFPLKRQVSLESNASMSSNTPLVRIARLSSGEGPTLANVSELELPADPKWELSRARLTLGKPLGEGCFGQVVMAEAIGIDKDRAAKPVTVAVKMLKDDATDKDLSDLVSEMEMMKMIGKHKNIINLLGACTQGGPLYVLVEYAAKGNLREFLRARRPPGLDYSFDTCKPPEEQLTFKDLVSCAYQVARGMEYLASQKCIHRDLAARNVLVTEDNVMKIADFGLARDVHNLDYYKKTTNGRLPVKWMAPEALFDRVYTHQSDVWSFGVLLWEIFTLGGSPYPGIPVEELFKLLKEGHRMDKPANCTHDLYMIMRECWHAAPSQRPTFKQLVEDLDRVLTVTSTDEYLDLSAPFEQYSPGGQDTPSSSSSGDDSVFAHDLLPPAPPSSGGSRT
Chain of Recombinant human FGFR2 (P21802 22-821): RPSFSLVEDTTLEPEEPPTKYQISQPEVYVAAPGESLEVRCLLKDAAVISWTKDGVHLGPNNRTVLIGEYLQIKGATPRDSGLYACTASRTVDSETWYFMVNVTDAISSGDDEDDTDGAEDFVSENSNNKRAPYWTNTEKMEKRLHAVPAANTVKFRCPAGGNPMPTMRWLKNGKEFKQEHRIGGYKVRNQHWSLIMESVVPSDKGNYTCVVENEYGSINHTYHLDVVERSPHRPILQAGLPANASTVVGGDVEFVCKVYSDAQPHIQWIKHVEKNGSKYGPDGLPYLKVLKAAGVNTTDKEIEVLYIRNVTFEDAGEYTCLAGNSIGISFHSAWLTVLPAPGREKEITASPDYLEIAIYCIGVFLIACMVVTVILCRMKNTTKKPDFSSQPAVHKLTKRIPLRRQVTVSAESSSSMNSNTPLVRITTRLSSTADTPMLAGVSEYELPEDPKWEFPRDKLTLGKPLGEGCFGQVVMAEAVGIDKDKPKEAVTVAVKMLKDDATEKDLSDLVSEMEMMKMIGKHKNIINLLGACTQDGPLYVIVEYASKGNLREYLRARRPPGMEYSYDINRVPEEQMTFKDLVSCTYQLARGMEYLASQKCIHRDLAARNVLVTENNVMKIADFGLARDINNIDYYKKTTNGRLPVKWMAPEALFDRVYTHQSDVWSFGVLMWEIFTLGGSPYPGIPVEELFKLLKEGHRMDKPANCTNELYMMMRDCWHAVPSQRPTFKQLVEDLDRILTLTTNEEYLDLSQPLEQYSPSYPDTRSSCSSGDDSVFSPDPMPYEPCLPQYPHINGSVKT

Structure (SMILES)	IC50 [1] [nM]	IC50 [2] [nM]	IC50 [3] [nM]	IC50 [4] [nM]	IC50 [5] [nM]
CCN1CCN(c2ccc(Nc3ncc(CCc4cc(C(=O)NOC)cc5occc45)cn3)cc2)CC1 [Compound 5]	56	24	12	47	13
CONC(=O)c1cc(CCc2cnc(Nc3cnn(C)c3)nc2)cc(OC)c1 [Compound 23]	18	29	6	13	9
CCN1CCN(c2ccc(Nc3ncc(CCc4cc(OC)cc(C(=O)NOC)c4)cn3)cc2)CC1 [Compound 17]	12	9	6	9	4
CNC(=O)c1cc(CCc2cnc(Nc3ccnnc3)nc2)c(F)c(OC)c1 [Compound 61]	158	400	17	62	54
CONC(=O)c1cc(CCc2cnc(Nc3ccc(OCCN4CCCC4)cc3)nc2)cc(OC)c1 [Compound 43]	33	69	10	48	16
CCN1CCN(c2cccc(Nc3ncc(CCc4cc(OC)cc(C(=O)NOC)c4)cn3)c2)CC1 [Compound 14, 3-(2-(2-((3-(4-ethylpiperazin-1-yl)phenyl)amino)pyrimidin-5-yl)ethyl)-N,5-dimethoxybenzamide]	7	9	4	4	3
CCN1CCN(c2ccc(Nc3ncc(CCc4cc(C(=O)NOC)cc(OC)c4Cl)cn3)cc2)CC1 [Compound 59]	4	2	2	2	3
CONC(=O)c1cc(CCc2cnc(Nc3ccc(OC)cc3)nc2)cc(OC)c1 [Compound 106]	33	40	7	35	10
CCN1CCN(c2ccc(Nc3ncc(/C=C/c4cc(OC)cc(C(=O)NOC)c4)cn3)cc2)CC1 [Compound 16]	17	13	8	16	12
CONC(=O)c1cc(CCc2cnc(Nc3cccc(N4C[C@@H](C)N[C@@H](C)C4)c3)nc2)cc(OC)c1 [Compound 18]	3	77	6	8	12
CONC(=O)c1cc(CCc2cnc(Nc3ccc(N4CCN(CCO)CC4)cc3)nc2)cc(OC)c1 [Compound 19, 3-(2-(2-((4-(4-(2-hydroxyethyl)piperazin-1-yl)phenyl)amino)pyrimidin-5-yl)ethyl)-N,5-dimethoxybenzamide]	22	19	5	11	5
CCN1CCN(c2ccc(Nc3ncc(CCc4cc(C(=O)NC5CC5)cc(OC)c4F)cn3)cc2)CC1 [Compound 57]	32	16	9	14	8
CCN1CCN(c2ccc(Nc3ccc(CCc4cc(OC)cc(C(=O)NOC)c4)cn3)cn2)CC1 [Compound 75]	94	123	33	61	41
CCN1CCN(c2ccc(Nc3ncc(CCc4cc(OC)cc(C(=O)NOC)c4)cn3)cc2)C[C@H]1C [Compound 48]	16	11	5	15	5
CCN1CCN(c2ccc(Nc3ncc(CCc4cc(OC)cc(C(=O)NC5CC5)c4)cn3)cc2)CC1 [Compound 46]	113	59	34	61	132
CCN1CCN(c2cc(F)cc(Nc3ncc(CCc4cc(OC)cc(C(=O)NOC)c4)cn3)c2)CC1 [Compound 77]	12	11	3	4	5
CONC(=O)c1cc(CCc2cnc(Nc3cnn(C)c3)nc2)c(F)c(OC)c1 [Compound 29]	5	5	2	7	3
CCN1CCN(c2ccc(Nc3ncc(CCc4cc(C(=O)NC)cc(OC)c4Cl)cn3)cc2)CC1 [Compound 56]	17	7	4	9	4
CONC(=O)c1cc(CCc2cnc(Nc3ccn(C)n3)nc2)cc(OC)c1 [Compound 24]	151	122	27	94	47
CCN1CCN(c2ccc(Nc3ccc(CCc4cc(C(=O)NOC)cc(OC)c4C)cn3)cc2)CC1 [Compound 47]	74	63	6	8	6
CCN1CCN(c2ccc(Nc3ncc(CCc4cc(OC)cc(C(=O)NOC)c4)cn3)cn2)CC1 [Compound 42]	15	11	4	8	2
